31 compounds from patent US7176195B2, “Fused azepine derivatives and their use as antidiuretic agents” (Ferring BV, priority 2000, dated 2007) can be followed below.

Usually EC50 stands for the concentration giving half of the maximal effect. Low readings indicate a more potent agent, high ones a less potent agent.

Sequence of V2 receptor (P30518 whole entry): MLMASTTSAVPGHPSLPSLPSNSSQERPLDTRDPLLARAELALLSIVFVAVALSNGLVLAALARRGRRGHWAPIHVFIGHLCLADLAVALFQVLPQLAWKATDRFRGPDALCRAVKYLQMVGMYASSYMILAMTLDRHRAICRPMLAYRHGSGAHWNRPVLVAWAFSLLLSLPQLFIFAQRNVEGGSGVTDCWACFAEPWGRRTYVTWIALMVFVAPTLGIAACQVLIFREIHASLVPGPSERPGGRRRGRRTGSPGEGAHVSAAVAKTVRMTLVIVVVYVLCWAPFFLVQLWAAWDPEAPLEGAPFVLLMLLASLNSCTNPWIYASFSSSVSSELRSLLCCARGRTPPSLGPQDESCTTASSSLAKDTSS

In one assay the target is V2 receptor (Homo sapiens, UniProt P30518). Put plainly: Determination of V2 receptor agonist activity in vitro (cellular activation). Type of assay: cell-based. The note with it: concentration of compound necessary to cause a half-maximal cellular activation. Here is the method:
Determination of V2r Ceptor Agonist Activity in Vitro
Agonist activity was determined for all compounds and is reported as an EC50 value, being that concentration of compound necessary to cause a half-maximal cellular activation.
Turning to `O=C(c1ccc(CNS(=O)(=O)Cc2ccccc2[N+](=O)[O-])c([N+](=O)[O-])c1)N1CCCCc2ccccc21` [Example 11, 1-(3-Nitro-4-[2-nitrobenyzlsulfonylaminomethyl]benzoyl)-2,3,4,5-tetrahydro-1H-1-benzazepine], the EC50 is 21 nM. That is a double-digit nanomolar value.

In the case of `COc1cccc(NC(=O)NCc2ccc(C(=O)N3CCCCc4ccccc43)cc2Cl)c1` [Example 4, 1-(3-Chloro-4-[3-(3-methoxyphenyl)ureidomethyl]benzoyl)-2,3,4,5-tetrahydro-1H-1-benzazepine], the concentration giving a half-maximal response (EC50) was found to be 300 nM. Take `O=C(NCc1ccc(C(=O)N2CCCCc3ccccc32)cc1Cl)Nc1ccccc1Cl` [Example 5, 1-(3-Chloro-4-[3-(2-chloropheny)ureidomethyl]benzoyl)-2,3,4,5-tetrahydro-1H-1-benzazepine]: the concentration for a half-maximal effect (EC50) was determined as 150 nM. Compound `N#C/N=C(\NCc1ccc(C(=O)N2CCCCc3ccccc32)cc1)Nc1c(F)cccc1F` [Example 2, 1-(4-[3-(2,6-Difluorophenyl)cyanoguanidinomethyl]benzoyl)-2,3,4,5-tetrahydro-1H-1-benzazepine] yielded a concentration for a half-maximal effect (EC50) of 160 nM. With `CCN1CCCN(C(=O)c2ccc(CNC(=O)Nc3c(F)cccc3F)c(C)c2)c2ccccc21` [Example 23, 1-(4-[3-(2,6-Difluorophenyl)ureidomethyl]-3-methylbenzoyl)-5-ethyl-2,3,4,5-tetrahydro-1H-1,5-benzodiazepine], a half-maximal effect (EC50) was put at 40 nM.

Regarding `Cc1cc(CNC(=O)Nc2c(F)cccc2F)ccc1C(=O)N1CCCN(C)c2ccccc21` [Example 19, 1-(4-[3-(2,6-Difluorophenyl)uredomethyl]-2-methylbenzoyl)-5-methyl-2,3,4,5-tetrahydro-1H-1,5-benzodiazepine], the concentration for a half-maximal effect (EC50) turned out to be 40 nM. Take `Cc1cc(C(=O)N2CCCCc3ccccc32)ccc1CNC(=O)NS(=O)(=O)c1ccccc1` [Example 8, 1-(3-Methyl-4-[3-(phenylsulfonyl)ureidomethyl]benzoyl)-2,3,4,5-tetrahydro-1H-1-benzazepine]: the concentration for a half-maximal effect (EC50) was determined as 220 nM.

The compound `CN1CCCN(C(=O)c2ccc(CNC(=O)Nc3c(F)cccc3F)c(Cl)c2)c2ccccc21` [Example 18, 1-(3-Chloro-4-[3-(2,6-difluorophenyl)ureidomethyl]benzoyl)-5-methyl-2,3,4,5-tetrahydro-1H-1,5-benzodiazepine] yielded an EC50 of 17 nM. `Cc1cc(C(=O)N2CCC[S+]([O-])c3ccccc32)ccc1CNC(=O)Nc1c(F)cccc1F` (stereo not shown) [Example 25, 5-(4-[3-(2,6-Difluorophenyl)ureidomethyl]-3-methylbenzoyl)-1-oxo-1λ^4-2,3,4,5-tetrahydro-1,5-benzothiazepine] came in with an EC50 of 280 nM. The same measure, in the same setting: the same measure for `Cc1cc(C(=O)N2CCCN(CCO)c3ccccc32)ccc1CNC(=O)Nc1c(F)cccc1F` [Example 17, 1-(4-[3-(2,6Difuorophenyl)ureidomethyl]-3-methylbenzoyl)-5-(2-hydroxyethyl)-2,3,4,5-tetrahydro-1H-1,5-benzodiazepine]: 16 nM; for `Cc1cc(C(=O)N2CCCCc3ccccc32)ccc1CNC(=O)Nc1c(F)cccc1F` [Example 10]: 4 nM. On the same count and under the same terms, the value for `O=C(NCc1ccc(C(=O)N2CCCCc3ccccc32)cn1)Nc1c(F)cccc1F` [Example 3, 1-(6-[3-(2,6-Difluorophenyl)ureidomethyl]nicotinoyl)-2,3,4,5-tetrahydro-1H-1-benzazepine] was 300 nM. For the compound `O=C(c1ccc(CNC(=S)Nc2c(F)cccc2F)c(Cl)c1)N1CCCCc2ccccc21` [Example 6, 1-(3-Chloro-4-[3-(2,6-difluorophenyl)thioureidomethyl]benzoyl)-2,3,4,5-tetrahydro-1H-1-benzazepine], a half-maximal response (EC50) required 47 nM. Same read-out and setting: the value for `Cc1cc(C(=O)N2CCCCc3sccc32)ccc1CNC(=O)Nc1c(F)cccc1F` [Example 26, 4-(4-[3-(2,6-Difluorophenyl)ureidomethyl]-3-methylbenzoyl)-5,6,7,8-tetrahydro-4H-thieno[3,2-b]azepine] was 10 nM. As to `O=C(NCc1ccc(C(=O)N2CCCCc3ccccc32)cc1)Nc1c(F)cccc1F` [Example 1, 1-(4-[3-(2,6-Difluorophenyl)ureidomethyl]benzoyl)-2,3,4,5-tetrahydro-1H-1-benzazepine], the concentration giving a half-maximal response (EC50) was determined as 39 nM.

`Cc1cc(C(=O)N2CCCNc3ccccc32)ccc1CNC(=O)Nc1c(F)cccc1F` [Example 15, 1-(4-[3-(2,6-Difluorophenyl)ureidomethyl]-3-methylbenzoyl)-2,3,4,5-tetrahydro-1H-1,5-bezazepine] registered an EC50 of 44 nM. The EC50 values of the last two compounds are within 1.5-fold of each other.

Regarding `Cc1cc(CNC(=O)Nc2c(F)cccc2F)ccc1C(=O)N1CCCCc2ccccc21` [Example 7, 1-(4-[3-(2,6-Difluorophenyl)ureidomethyl]-2-methylbenzoyl)-2,3,4,5-tetrahydro-1H-1-benzazepine], a half-maximal effect (EC50) was put at 24 nM. With `Cc1cc(C(=O)N2CCCCc3sccc32)ccc1CNC(=O)Nc1c(F)c(F)cc(F)c1F` [Example 27, 4-(3-Methyl-4-[3-(2,3,5,6-tetrafluorophenyl)ureidomethyl]benzoyl)-5,6,7,8-tetrahydro-4H-thieno[3,2-b]azepine], the response was half-maximal at 23 nM (EC50).

`O=C(NCc1ccc(C(=O)N2CCCCc3ccccc32)c(Cl)n1)Nc1c(F)cccc1F` [Example 21, 1-(2-Chloro-6-[3-(2,6-difluorophenyl)ureidomethyl]nicotinoyl)-2,3,4,5-tetrahydro-1H-1-benzazepine] registered an EC50 of 180 nM. Regarding `Cc1cc(C(=O)N2CCCCc3cccnc32)ccc1CNC(=O)Nc1c(F)cccc1F` [Example 24], the half-maximal effective concentration (EC50) was found to be 92 nM. On the same count and under the same terms, the value for `O=C(NCc1ccc(C(=O)N2CCCCc3ccccc32)c(F)c1)Nc1c(F)cccc1F` [Example 14, 1-(4-[3-(2,6-Difluorophenyl)ureidomethyl]-2-fluorobenzoyl)-2,3,4,5-tetrahydro-1H-1-benzazepine] was 240 nM; that for `Cc1cc(C(=O)N2CCCN(Cc3cccnc3)c3ccccc32)ccc1CNC(=O)Nc1c(F)cccc1F` [Example 16, 1-(4-[3-(2,6-Difluorophenyl)ureidomethyl]-3-methylbenzoyl)-5-(3-pyridyl)methyl-2,3,4,5-tetrahydro-1H-1,5-benzodiazepine] was 16 nM.

The compound `Cn1c(CNC(=O)Nc2c(F)cccc2F)ccc(C(=O)N2CCCCc3ccccc32)c1=O` [Example 22, 1-(6-[3-(2,6-Difluorophenyl)ureidomethyl]-1-methyl-2-oxo-1,2-dihydropyridyl-3-carbonyl)-2,3,4,5-tetrahydro-1H-1-benzazepine] showed an EC50 of 1000 nM. With `Nc1cc(C(=O)N2CCCCc3ccccc32)ccc1CNC(=O)Nc1c(F)cccc1F` [Example 12, 1-(3-Amino-4-[3-(2,6 difluorophenyl)ureidomethyl]benzoyl)-2,3,4,5-tetrahydro-1H-1-benzazepine], the 50% effective concentration (EC50) was found to be 50 nM.

`Cc1cc(C(=O)N2CCCCc3ccccc32)cc(C)c1CNC(=O)Nc1c(F)cccc1F` [Example 20]: a half-maximal response (EC50) required 17 nM.

Regarding `Cc1cc(C(=O)N2CCCCc3ccccc32)ccc1CNC(=O)Nc1ccc[nH]c1=O` [Example 9, 1-(3-Methyl-4-[3-(2-oxo-1,2-dihydropyrid-3-yl)ureidomethyl]benzoyl)-2,3,4,5-tetrahydro-1H-1-benzazepine], it took 50 nM to reach a half-maximal effect (EC50). On to `CN(C)c1cc(C(=O)N2CCCCc3ccccc32)ccc1CNC(=O)Nc1c(F)cccc1F` [Example 13, 1-(4-[3-(2,6-Difluorophenyl)ureldomethyl]-3-dimethylaminobenzoyl)-2,3,4,5-tetrahydro-1H-1-benzazepine], for which it took 38 nM to reach a half-maximal effect (EC50).

For another assay, the system named is Brattleboro rat. Put plainly: Determination of antidiuretic activity in vivo (urine output, Brattleboro rat). The conditions noted are these: Brattleboro rats, 1 mg/kg p.o. in methylcellulose, vs control animals. Here is the method:
Determination of Antidiuretic Activity in Vivo
The Brattleboro rat is a recognised model for vasopressin deficiency (for a review see FD Grant, “Genetic models of vasopressin deficiency”, Exp. Physiol. 85, 203S–209S, 2000). […] Compounds of the invention were administered to Brattleboro rats (0.1–10 mg/kg p.o. in methylcellulose. Urine was callected hourly and volumes were compared with control animals. Animals had free access to food and water throughout the experiment. Representative results are given in Table S. Results for Desmopressin are given for comparison.
With `Cc1cc(C(=O)N2CCCCc3ccccc32)ccc1CNC(=O)NCC(=O)N(C)C` [Example 35, 1-(4-[N-(2-Dimethylamino-2-oxoethylcarbamoyl)aminomethyl]-3-methylbenzoyl)-2,3,4,5-tetrahydro-1H-1-benzazepine], the “% inhibition of urine output (at 1 hour)” value is 45–82%.

In the case of `Cc1cc(C(=O)N2CCCCc3ccccc32)ccc1CNC(=O)N1CCC[C@H]1C(=O)N(C)C` [Example 39, 1-(2-Methyl-4-(2,3,4,5-tetrahydro-1-benzazepin-1-ylcarbonyl)benzylcarbamoyl)-L-proline-N,N-dimethylamide], the “% inhibition of urine output (at 1 hour)” value stood at 82%. On to `CCOC(=O)CNC(=O)NCc1ccc(C(=O)N2CCCCc3ccccc32)cc1C` [Example 32, 1-(4-[N-(2-Ethoxy-2-oxoethylcarbamoyl)aminomethyl]-3-methylbenzoyl)-2,3,4,5-tetrahydro-1H-1-benzazepine], for which the “% inhibition of urine output (at 1 hour)” value came out at 74%. In the case of `Cc1cc(C(=O)N2CCCCc3ccccc32)ccc1CNC(=O)NCC(=O)O` [Example 33, 1-(4-[N-(Carboxymethylcarbamoyl)aminomethyl]-3-methylbenzoyl)-2,3,4,5-tetrahydro-1H-1-benzazepine], the “% inhibition of urine output (at 1 hour)” value is recorded as 38%.
